Some test systems named below: OVCAR-8 ovarian; SK-MEL-5 melanoma; UO-31 renal; SN12C renal; OVCAR-5 ovarian; MCF7 breast; HS 578T breast; HCC-2998 colon; UACC-62 melanoma; T-47D breast.
Assay in all cases: inhibition of tumour cell growth, NCI panel, 48 h

Among the data in PubChem BioAssay (NCI) are TGI and GI50 values, retold here.

Several values for one entry are separate records, joined by “and”; a condition that tells them apart may be missing. Equal entries are not always repeated.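 Cells were grown in 96-well plates and exposed to each compound for 48 hours at five concentrations; endpoints were interpolated linearly between bracketing concentrations, or set to the highest concentration if not reached. GI50 is the concentration that inhibits growth by half. TGI: total growth inhibition.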

For `NC(Cc1ccc(OCc2ccccc2)cn1)C(=O)O` (stereo not drawn), the TGI in the assay with OVCAR-8 ovarian, with SK-MEL-5 melanoma, with UO-31 renal, in the assay on SN12C renal, in the assay on OVCAR-5 ovarian and in the assay on MCF7 breast was more than 100 µM each time. In addition, the TGI with HS 578T breast and with HCC-2998 colon was more than 100 µM throughout.
`CCOC(=O)C(/C(=N/S(=O)(=O)c1cc(C)c(Cl)cc1[S-])[n+]1ccc(N(C)C)cc1)=C(/O)c1ccc([N+](=O)[O-])cc1`: the TGI with OVCAR-8 ovarian, in the assay with SK-MEL-5 melanoma, with UACC-62 melanoma, with UO-31 renal, in the assay on SN12C renal and in the assay on OVCAR-5 ovarian was more than 100 µM in each case. Besides, the TGI in the assay with MCF7 breast and in the assay with T-47D breast was more than 100 µM throughout.
Turning to `CCOC(=O)c1c[nH]c2c(Sc3ccccc3)nccc2c1=O`, the TGI in the assay with OVCAR-8 ovarian, with SK-MEL-5 melanoma, in the assay with UACC-62 melanoma, with UO-31 renal, with SN12C renal and with OVCAR-5 ovarian was more than 100 µM throughout. The TGI in the assay on MCF7 breast, in the assay with HS 578T breast and in the assay with T-47D breast was more than 100 µM in each case.
`CN(C)c1ccc(C=Nc2ccc(-c3nc4ccccc4[nH]3)cc2)cc1`: the TGI in the assay on OVCAR-8 ovarian, in the assay on SK-MEL-5 melanoma, in the assay on UO-31 renal, with SN12C renal, in the assay with OVCAR-5 ovarian and with MCF7 breast was more than 100 µM in each case. Further, the TGI in the assay on HS 578T breast and in the assay on T-47D breast was more than 100 µM in each case.
Turning to `O=C1/C(=C\Oc2ccc(F)cc2)N2CCC1CC2`, the TGI in the assay on OVCAR-8 ovarian, in the assay with SK-MEL-5 melanoma, in the assay on UACC-62 melanoma, in the assay with UO-31 renal, in the assay with SN12C renal and in the assay with OVCAR-5 ovarian was more than 100 µM in each case. For the same compound, the TGI with MCF7 breast, in the assay with HS 578T breast and in the assay with T-47D breast was more than 100 µM throughout.
With `Cc1ccn2c(=O)cc(CN3CCOCC3)nc2c1`, the TGI with OVCAR-8 ovarian, in the assay with UACC-62 melanoma, in the assay with UO-31 renal, in the assay on SN12C renal, with OVCAR-5 ovarian and in the assay on MCF7 breast was more than 100 µM throughout. The TGI in the assay on HS 578T breast and with HCC-2998 colon was more than 100 µM each time.
For the compound `S=c1[nH]nc(CNc2ccc(-c3n[nH]c(=S)n3-c3ccc(Cl)cc3)cc2)n1-c1ccc(Cl)cc1`, the TGI is 65 µM in the assay on SK-MEL-5 melanoma; 78.8 µM in the assay with UACC-62 melanoma; 32.4 µM in the assay on UO-31 renal; 82.8 µM in the assay with SN12C renal; 46.4 µM in the assay with OVCAR-5 ovarian; more than 100 µM in the assay on MCF7 breast. In the assay on HCC-2998 colon, the TGI was more than 100 µM.
On to `Nc1ccc2c(O)cc(=O)[nH]c2n1`, for which the TGI with OVCAR-8 ovarian, with SK-MEL-5 melanoma, with UACC-62 melanoma, with UO-31 renal, in the assay on SN12C renal and in the assay with OVCAR-5 ovarian was more than 100 µM in each case. Besides, the TGI with MCF7 breast, in the assay with HS 578T breast and with T-47D breast was more than 100 µM each time.
As for `COc1cc(NS(C)(=O)=O)ccc1Nc1cc[nH]c2ccc3nccc3c12`, the TGI was 28.8 µM with OVCAR-8 ovarian; 29.8 µM in the assay with SK-MEL-5 melanoma; 32.5 µM with UACC-62 melanoma; more than 100 µM with UO-31 renal; 28.2 µM in the assay on SN12C renal; 30.8 µM in the assay on OVCAR-5 ovarian. Also, the TGI is 35.9 µM in the assay with MCF7 breast, more than 100 µM in the assay on HS 578T breast and 33.2 µM in the assay with T-47D breast.
Regarding `Cc1ccc(S(=O)(=O)NC(=O)NCCc2cnc[nH]2)cc1`, the TGI in the assay on OVCAR-8 ovarian, with SK-MEL-5 melanoma, with UACC-62 melanoma, in the assay with UO-31 renal, in the assay with OVCAR-5 ovarian and in the assay with MCF7 breast was more than 100 µM each time. Besides, the TGI with HS 578T breast and in the assay with HCC-2998 colon was more than 100 µM each time.
With `COc1ccccc1NC(=S)NN=C(C)c1cccc(C(C)=NNC(=S)Nc2ccccc2OC)n1`, the TGI with OVCAR-8 ovarian was more than 100 µM; in the assay with SK-MEL-5 melanoma, 32.7 µM; in the assay with UACC-62 melanoma, more than 100 µM; in the assay on UO-31 renal, more than 100 µM; in the assay with SN12C renal, more than 100 µM; in the assay with OVCAR-5 ovarian, more than 100 µM. The TGI in the assay on MCF7 breast, with HCC-2998 colon and in the assay on T-47D breast was more than 100 µM each time.
In the case of `CC(=O)O[C@H]1C(=O)[C@@]2(C)[C@H]([C@H](OC(=O)c3cccc([N+](=O)[O-])c3)[C@]3(O)C[C@H](OC(=O)[C@H](O)[C@@H](NC(=O)c4ccccc4)c4ccccc4)C(C)=C1C3(C)C)[C@]1(OC(C)=O)CO[C@@H]1C[C@@H]2O`, the TGI with OVCAR-8 ovarian is more than 25 µM; with SK-MEL-5 melanoma, more than 9.01 µM; with UACC-62 melanoma, more than 25 µM; in the assay with UO-31 renal it was more than 25 µM; in the assay with SN12C renal it was more than 25 µM; in the assay with OVCAR-5 ovarian, 16.4 µM. Besides, the TGI is more than 17.1 µM with MCF7 breast, 0.00761 µM with HS 578T breast and more than 25 µM in the assay on HCC-2998 colon.
Regarding `N#Cc1cc(C#N)c(N)nc1N`, the TGI in the assay with OVCAR-8 ovarian, in the assay with SK-MEL-5 melanoma, in the assay on UACC-62 melanoma, in the assay on UO-31 renal, in the assay with SN12C renal and in the assay on OVCAR-5 ovarian was more than 100 µM each time. Besides, the TGI in the assay with MCF7 breast, in the assay on HS 578T breast and in the assay with HCC-2998 colon was more than 100 µM in each case.
Regarding `O=[N+]([O-])c1cccc2nc3ccccc3c(NCCCn3ccnc3[N+](=O)[O-])c12`, the TGI is 0.0126 µM and 0.0167 µM in the assay with OVCAR-8 ovarian; 0.0187 µM with UACC-62 melanoma; 0.00595 µM and 0.038 µM in the assay on UO-31 renal; 0.0722 µM and 0.0198 µM with SN12C renal; 0.00146 µM in the assay with MCF7 breast; 0.0899 µM and 0.0415 µM in the assay on HS 578T breast. In the assay with HCC-2998 colon, this compound returned a TGI of 0.000515 µM. Further, the GI50 in the assay on OVCAR-5 ovarian and in the assay on HS 578T breast was 0.0109 µM throughout.
Consider `Oc1ccc(O)c(CNc2ccc(C(O)C(F)(F)F)cc2)c1` (stereo not drawn), for which the TGI with OVCAR-8 ovarian is more than 100 µM; in the assay on SK-MEL-5 melanoma, 76.2 µM; in the assay with UACC-62 melanoma, 35.8 µM; in the assay on UO-31 renal it was 21.9 µM; with SN12C renal it was 47.5 µM; in the assay with OVCAR-5 ovarian, 40.8 µM. The TGI with MCF7 breast was 69.2 µM; in the assay with HS 578T breast, more than 100 µM; in the assay with T-47D breast it was 61.5 µM.
